Measured values published in US6624160B2, “4-oxo-1,4-dihydro-3-cinnolinecarboxamides as antiviral agents” (Pharmacia & Upjohn Co., priority 2000, dated 2003).
pIC50: −log10 of the molar value.

Key:
HCMV polymerase = target: T1, HCMV polymerase (Human cytomegalovirus, UniProt P08546); assay: HCMV polymerase assay (scintillation proximity assay, modified version); format: biochemical; details: modified SPA assay; compounds diluted in 100% DMSO; 4.5 mM DTT
T1 construct: made in house; host or cells: recombinant baculovirus-infected SF-9 cells
T1 sequence (P08546 whole entry): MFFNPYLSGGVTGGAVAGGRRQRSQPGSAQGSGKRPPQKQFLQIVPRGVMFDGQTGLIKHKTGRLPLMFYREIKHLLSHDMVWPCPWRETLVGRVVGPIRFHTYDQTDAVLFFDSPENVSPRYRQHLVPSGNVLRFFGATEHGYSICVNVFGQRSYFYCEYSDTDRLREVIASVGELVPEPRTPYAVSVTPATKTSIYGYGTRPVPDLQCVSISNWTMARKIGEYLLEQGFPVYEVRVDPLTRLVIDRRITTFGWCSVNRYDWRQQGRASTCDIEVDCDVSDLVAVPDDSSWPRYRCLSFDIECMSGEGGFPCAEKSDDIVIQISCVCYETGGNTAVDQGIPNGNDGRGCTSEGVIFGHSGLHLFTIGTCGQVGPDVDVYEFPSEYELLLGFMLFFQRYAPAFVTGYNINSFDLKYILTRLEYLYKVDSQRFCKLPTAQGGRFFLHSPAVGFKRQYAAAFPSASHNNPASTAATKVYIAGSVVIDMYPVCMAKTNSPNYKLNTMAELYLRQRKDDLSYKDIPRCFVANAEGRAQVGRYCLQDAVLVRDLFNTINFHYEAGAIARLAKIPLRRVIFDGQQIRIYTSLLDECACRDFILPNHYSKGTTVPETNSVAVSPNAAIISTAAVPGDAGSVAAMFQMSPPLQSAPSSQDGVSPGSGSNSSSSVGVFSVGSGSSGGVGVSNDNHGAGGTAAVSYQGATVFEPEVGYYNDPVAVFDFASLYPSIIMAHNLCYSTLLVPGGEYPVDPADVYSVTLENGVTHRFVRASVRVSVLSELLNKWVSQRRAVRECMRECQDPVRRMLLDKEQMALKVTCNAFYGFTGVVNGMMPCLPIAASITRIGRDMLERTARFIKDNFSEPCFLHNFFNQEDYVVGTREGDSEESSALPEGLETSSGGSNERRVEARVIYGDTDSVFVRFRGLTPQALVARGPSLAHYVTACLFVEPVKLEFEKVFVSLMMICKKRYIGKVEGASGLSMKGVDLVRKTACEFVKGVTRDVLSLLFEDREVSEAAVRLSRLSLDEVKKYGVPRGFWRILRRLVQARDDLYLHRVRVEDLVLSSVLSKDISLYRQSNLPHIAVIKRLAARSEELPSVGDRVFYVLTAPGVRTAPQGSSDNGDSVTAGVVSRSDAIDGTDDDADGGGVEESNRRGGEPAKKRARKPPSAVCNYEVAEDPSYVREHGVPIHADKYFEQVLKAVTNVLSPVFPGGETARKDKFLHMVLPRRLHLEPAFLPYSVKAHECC
Experimental: The HCMV polymerase assay is performed using a scintillation proximity assay (SPA) as described in several references, such as N. D. Cook, et al., Pharmaceutical Manufacturing International, pages 49-53 (1992); K. Takeuchi, Laboratory Practice, September issue (1992); U.S. Pat. No. 4,568,649 (1986); which are incorporated by reference herein. Reactions are performed in 96-well plates. The assay is conducted in 100 μl volume with 5.4 mM HEPES (pH 7.5), 11.7 mM KCl, 4.5 mM MgCl2, 0.36 mg/ml BSA, and 90 nM ^3H-dTTP. Assays are run with and without CHAPS, (3-[(3-cholamidopropyl)-dimethylammonio]-1-propane-sulfonate) at a final concentration of 2 mM. HCMV polymerase is diluted in enzyme dilution buffer containing 50% glycerol, 250 mM NaCl, 10 mM HEPES (pH 7.5), 100 μg/ml BSA, and 0.01% sodium azide. The HCMV polymerase, which is expressed in recombinant baculovirus-infected SF-9 cells and purified according to literature procedures, is added at 10% (or 10 μl) of the final reaction volume, i.e., 100 μl. Compounds are diluted in 50% DMSO and 10 μl are added to each well. Control wells contain an equivalent concentration of DMSO. Unless noted otherwise, reactions are initiated via the addition of 6 nM biotinylated poly(dA)-oligo(dT) template/primer to reaction mixtures containing the enzyme, substrate, and compounds of interest. Plates are incubated in a 25° C. or 37° C. H2O bath and terminated via the addition of 40 μl/reaction of 0.5 M EDTA (pH 8) per well. Reactions are terminated within the time-frame during which substrate incorporation is linear and varied depending upon the enzyme and conditions used, i.e., 30 min. for HCMV polymerase. Ten μl of streptavidin-SPA beads (20 mg/ml in PBS/10% glycerol) are added following termination of the reaction. Plates are incubated 10 min. at 37° C., then equilibrated to room temperature, and counted on a Packard Topcount. Linear regressions are performed and IC50's are calculated using computer software.
A modified version of the above HCMV polymerase assay is performed as described above, but with the following changes: Compounds are diluted in 100% DMSO until final dilution into assay buffer. In the previous assay, compounds are diluted in 50% DMSO. 4.5 mM dithiotherotol (DTT) is added to the polymerase buffer. […] All results are listed as Polymerase IC50 (μM) values. In Table 1, the term “nd” refers to activity data not determined.

VZV polymerase = VZV polymerase (Varicella-zoster virus, UniProt P09252); assay: VZV polymerase assay (Table 1); format: biochemical
VZV polymerase, sequence (P09252 whole entry): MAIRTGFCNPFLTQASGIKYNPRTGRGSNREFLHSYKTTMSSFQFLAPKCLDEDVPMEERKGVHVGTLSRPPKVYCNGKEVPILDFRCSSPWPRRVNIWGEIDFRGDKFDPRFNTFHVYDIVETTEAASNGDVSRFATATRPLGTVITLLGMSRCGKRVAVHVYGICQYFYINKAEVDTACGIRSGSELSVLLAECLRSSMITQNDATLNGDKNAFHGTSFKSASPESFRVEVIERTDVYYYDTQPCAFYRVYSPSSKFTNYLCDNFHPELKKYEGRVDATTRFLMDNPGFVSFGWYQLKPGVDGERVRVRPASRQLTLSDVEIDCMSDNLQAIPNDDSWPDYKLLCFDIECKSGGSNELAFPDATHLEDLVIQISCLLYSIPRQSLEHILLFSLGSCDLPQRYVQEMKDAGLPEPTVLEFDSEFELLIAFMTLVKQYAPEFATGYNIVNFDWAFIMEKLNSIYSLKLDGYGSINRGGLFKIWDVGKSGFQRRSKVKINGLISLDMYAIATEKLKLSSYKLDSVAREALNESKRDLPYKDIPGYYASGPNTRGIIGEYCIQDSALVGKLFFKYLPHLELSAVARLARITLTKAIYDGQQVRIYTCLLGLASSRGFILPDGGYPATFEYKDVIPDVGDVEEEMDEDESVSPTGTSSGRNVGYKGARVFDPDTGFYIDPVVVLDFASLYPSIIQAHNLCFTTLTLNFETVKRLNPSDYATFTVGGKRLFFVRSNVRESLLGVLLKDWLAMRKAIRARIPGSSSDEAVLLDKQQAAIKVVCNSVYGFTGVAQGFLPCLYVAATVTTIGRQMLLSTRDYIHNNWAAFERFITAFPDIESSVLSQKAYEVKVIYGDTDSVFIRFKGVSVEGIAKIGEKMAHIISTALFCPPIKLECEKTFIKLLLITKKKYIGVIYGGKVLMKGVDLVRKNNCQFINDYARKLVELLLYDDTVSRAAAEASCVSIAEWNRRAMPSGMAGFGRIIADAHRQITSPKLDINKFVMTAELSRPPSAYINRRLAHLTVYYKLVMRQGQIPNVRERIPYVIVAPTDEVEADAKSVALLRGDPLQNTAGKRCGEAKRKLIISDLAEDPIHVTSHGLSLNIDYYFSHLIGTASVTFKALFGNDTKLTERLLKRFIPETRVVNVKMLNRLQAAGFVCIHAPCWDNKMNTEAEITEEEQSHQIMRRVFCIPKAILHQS

HSV polymerase = HSV polymerase (Human herpesvirus 1, UniProt P04293); assay: HSV polymerase assay (Table 1); format: biochemical
HSV polymerase, sequence (P04293 whole entry): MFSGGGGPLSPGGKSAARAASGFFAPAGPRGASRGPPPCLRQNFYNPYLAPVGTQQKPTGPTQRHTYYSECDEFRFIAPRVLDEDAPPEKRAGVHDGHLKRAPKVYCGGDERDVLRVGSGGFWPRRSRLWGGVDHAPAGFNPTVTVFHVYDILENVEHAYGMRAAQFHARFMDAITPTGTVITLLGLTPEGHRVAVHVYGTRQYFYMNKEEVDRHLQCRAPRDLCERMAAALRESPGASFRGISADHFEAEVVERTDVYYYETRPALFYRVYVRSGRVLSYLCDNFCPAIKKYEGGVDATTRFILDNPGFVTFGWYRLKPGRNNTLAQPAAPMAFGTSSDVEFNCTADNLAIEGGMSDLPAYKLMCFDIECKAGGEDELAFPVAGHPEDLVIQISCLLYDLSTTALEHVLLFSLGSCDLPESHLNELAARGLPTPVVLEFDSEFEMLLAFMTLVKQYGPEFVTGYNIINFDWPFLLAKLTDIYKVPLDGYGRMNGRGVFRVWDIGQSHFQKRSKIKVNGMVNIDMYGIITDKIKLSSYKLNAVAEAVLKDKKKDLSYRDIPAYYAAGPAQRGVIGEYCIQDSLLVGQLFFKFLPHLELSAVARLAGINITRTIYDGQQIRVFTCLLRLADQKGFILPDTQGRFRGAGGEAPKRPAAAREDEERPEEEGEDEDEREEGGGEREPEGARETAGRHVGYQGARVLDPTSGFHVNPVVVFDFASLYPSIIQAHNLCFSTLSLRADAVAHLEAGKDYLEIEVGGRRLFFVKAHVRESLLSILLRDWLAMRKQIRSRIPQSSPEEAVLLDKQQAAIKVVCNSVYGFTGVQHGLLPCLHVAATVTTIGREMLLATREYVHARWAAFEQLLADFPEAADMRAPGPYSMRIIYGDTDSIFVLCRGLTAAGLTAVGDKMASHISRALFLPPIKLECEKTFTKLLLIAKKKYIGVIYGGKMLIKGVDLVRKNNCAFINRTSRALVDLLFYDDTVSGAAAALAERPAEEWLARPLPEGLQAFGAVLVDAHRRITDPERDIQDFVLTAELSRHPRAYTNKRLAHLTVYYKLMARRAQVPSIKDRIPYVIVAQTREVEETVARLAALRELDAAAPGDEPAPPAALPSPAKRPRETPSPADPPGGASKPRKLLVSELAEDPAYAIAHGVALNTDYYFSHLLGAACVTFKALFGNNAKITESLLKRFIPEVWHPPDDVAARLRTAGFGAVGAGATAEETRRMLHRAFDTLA

Cn1nc(C(=O)NCc2ccc(Cl)cc2)c(=O)c2cc(I)ccc21 [Example 1, N-(4-chlorobenzyl)-6-iodo-1-methyl-4-oxo-1,4-dihydro-3-cinnolinecarboxamide]
pIC50 (HCMV polymerase): 5.26
melting point: 194 to 195 °C

Cn1nc(C(=O)NCc2ccc(Cl)cc2)c(=O)c2cc(C#CCO)ccc21 [Example 2, N-(4-chlorobenzyl)-6-(3-hydroxy-1-propynyl)-1-methyl-4-oxo-1,4-dihydro-3-cinnolinecarboxamide]
pIC50 (HCMV polymerase): 5.57
pIC50 (VZV polymerase): 5.96
melting point: 229 to 231 °C
pIC50 (HSV polymerase): 5.77

Cn1nc(C(=O)NCc2ccc(Cl)cc2)c(=O)c2cc(CN3CCOCC3)ccc21 [Example 5, N-(4-chlorobenzyl)-1-methyl-6-(4-morpholinylmethyl)-4-oxo-1,4-dihydro-3-cinnolinecarboxamide]
pIC50 (HCMV polymerase): 5.92
melting point: 190 to 192 °C

Cn1nc(C(=O)NCc2ccc(Cl)cc2)c(=O)c2cc(C#CCCO)ccc21 [Example 3, N-(4-chlorobenzyl)-6-(4-hydroxy-1-butynyl)-1-methyl-4-oxo-1,4-dihydro-3-cinnolinecarboxamide]
pIC50 (HCMV polymerase): 5.01
melting point: 227 to 229 °C

Cn1nc(C(=O)NCc2ccc(Cl)cc2)c(=O)c2cc(CO)ccc21 [Example 4, N-(4-chlorobenzyl)-6-(hydroxymethyl)-1-methyl-4-oxo-1,4-dihydro-3-cinnolinecarboxamide]
pIC50 (HCMV polymerase): 4.78
melting point: 203 to 205 °C
